Assay results taken from ChEMBL document CHEMBL4673222, “Discovery of a Bioactive Inhibitor with a New Scaffold for Cystathionine γ-Lyase” (J Med Chem, 2019).
The source made the active and inactive calls. No cut-off for these calls is given here.

Experiments:
[1] = target: T1, Cystathionine gamma-lyase (Homo sapiens, UniProt P32929); test: Inhibition of human CSE using L-Cys as the substrate by tandem well based HTS assay
[2] = system: Rattus norvegicus; test: Inhibition of CSE in Sprague-Dawley rat model of hemorrhagic shock assessed as increase in plasma H-cys level at 50 mg/kg, ip after 45 mins by ELISA; assay type: functional, organism-based
[3] = system: Rattus norvegicus; test: Inhibition of CSE in Sprague-Dawley rat model of hemorrhagic shock assessed as reduction in plasma H2S level at 50 mg/kg, ip after 45 mins by methylene blue dye based method; assay type: functional, organism-based
[4] = system: Rattus norvegicus; test: Reversal of hypotension in Sprague-Dawley rat model of hemorrhagic shock assessed as mean artery pressure level at 50 mg/kg, ip after 45 mins (reference value: 35.8 mmHg); assay type: functional; details: 0.75 h
[5] = system: RAW264.7; test: Toxicity in mouse RAW264.7 cells assessed as cell viability up to 100 uM incubated for 12 to 24 hrs by CellTiter96 aqueous one solution cell proliferation assay; assay type: cell-based; details: time 12-24 hrs
[6] = target: T1, Cystathionine gamma-lyase; test: Inhibition of human CSE expressed in HEK293T cells assessed as reduction in H2S contents at 20 to 50 uM by lead acetate assay; assay type: cell-based; details: dose 20-50 µM
[7] = system: HEK-293T; test: Toxicity in HEK293T cells assessed as cell viability up to 100 uM incubated for 12 to 24 hrs by CellTiter96 aqueous one solution cell proliferation assay; assay type: cell-based; details: human, time 12-24 hrs
[8] = system: Cystathionine gamma-lyase (Homo sapiens), P32929 [R119K]; test: Inhibition of human CSE R119K mutant expressed in HEK293T cells assessed as reduction in H2S contents at 200 to 500 uM by lead acetate assay; assay type: cell-based; details: dose 200-500 µM
Chain of Cystathionine gamma-lyase (Homo sapiens), P32929 [R119K] (P32929 whole entry R119K): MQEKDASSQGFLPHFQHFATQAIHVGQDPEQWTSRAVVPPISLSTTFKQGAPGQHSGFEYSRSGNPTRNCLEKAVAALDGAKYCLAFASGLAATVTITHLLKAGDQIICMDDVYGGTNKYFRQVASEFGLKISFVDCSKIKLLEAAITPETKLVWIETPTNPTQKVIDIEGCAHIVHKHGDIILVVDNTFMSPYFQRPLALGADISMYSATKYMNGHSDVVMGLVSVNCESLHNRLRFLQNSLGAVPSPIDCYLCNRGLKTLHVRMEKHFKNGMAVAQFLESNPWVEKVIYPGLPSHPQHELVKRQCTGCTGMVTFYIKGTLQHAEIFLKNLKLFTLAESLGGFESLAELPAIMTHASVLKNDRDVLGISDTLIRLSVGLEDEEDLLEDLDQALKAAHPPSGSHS

[9] = system: Cystathionine gamma-lyase (Homo sapiens), P32929 [Y114F]; test: Inhibition of human CSE Y114F mutant expressed in HEK293T cells assessed as reduction in H2S contents at 200 to 500 uM by lead acetate assay; assay type: cell-based; details: dose 200-500 µM
Chain of Cystathionine gamma-lyase (Homo sapiens), P32929 [Y114F] (P32929 whole entry Y114F): as the sequence (P32929 whole entry R119K) above, with Y114F, K119R counted along it

[10] = system: Cystathionine gamma-lyase (Homo sapiens), P32929 [R119A]; test: Inhibition of human CSE R119A mutant expressed in HEK293T cells assessed as reduction in H2S contents at 200 to 500 uM by lead acetate assay; assay type: cell-based; details: dose 200-500 µM
Chain of Cystathionine gamma-lyase (Homo sapiens), P32929 [R119A] (P32929 whole entry R119A): as the sequence (P32929 whole entry R119K) above, with K119A counted along it

[11] = target: T2, Cystathionine beta-synthase (Homo sapiens, UniProt P35520); test: Inhibition of wild type human CBS expressed in HEK293T cells assessed as reduction in H2S contents; assay type: cell-based
T2 sequence (P35520 whole entry): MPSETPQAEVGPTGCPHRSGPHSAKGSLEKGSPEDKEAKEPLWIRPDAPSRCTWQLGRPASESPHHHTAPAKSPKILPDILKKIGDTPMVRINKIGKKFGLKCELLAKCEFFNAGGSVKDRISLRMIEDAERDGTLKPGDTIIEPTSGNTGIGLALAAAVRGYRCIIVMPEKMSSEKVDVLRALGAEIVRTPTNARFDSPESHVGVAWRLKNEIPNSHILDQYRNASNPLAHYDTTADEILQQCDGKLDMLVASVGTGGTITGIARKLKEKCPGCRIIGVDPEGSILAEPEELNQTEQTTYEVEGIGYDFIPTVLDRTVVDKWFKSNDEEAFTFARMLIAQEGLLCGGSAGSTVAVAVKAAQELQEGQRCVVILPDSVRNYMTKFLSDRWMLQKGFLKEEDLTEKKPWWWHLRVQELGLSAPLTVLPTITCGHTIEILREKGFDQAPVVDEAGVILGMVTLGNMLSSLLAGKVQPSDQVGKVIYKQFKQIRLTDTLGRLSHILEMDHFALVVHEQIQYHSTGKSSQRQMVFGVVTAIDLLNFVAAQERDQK

[12] = target: Cystathionine gamma-lyase (Homo sapiens, UniProt P32929, R119K); test: Inhibition of human CSE R119K mutant expressed in HEK293T cells assessed as reduction in H2S contents; assay type: cell-based
Chain of Cystathionine gamma-lyase (Homo sapiens, UniProt P32929, R119K) (P32929 whole entry R119K): as the sequence (P32929 whole entry R119K) above

[13] = target: Cystathionine gamma-lyase (Homo sapiens, UniProt P32929, Y114F); test: Inhibition of human CSE Y114F mutant expressed in HEK293T cells assessed as reduction in H2S contents; assay type: cell-based
Chain of Cystathionine gamma-lyase (Homo sapiens, UniProt P32929, Y114F) (P32929 whole entry Y114F): as the sequence (P32929 whole entry R119K) above, with Y114F, K119R counted along it

[14] = target: Cystathionine gamma-lyase (Homo sapiens, UniProt P32929, R119A); test: Inhibition of human CSE R119A mutant expressed in HEK293T cells assessed as reduction in H2S contents; assay type: cell-based
Chain of Cystathionine gamma-lyase (Homo sapiens, UniProt P32929, R119A) (P32929 whole entry R119A): as the sequence (P32929 whole entry R119K) above, with K119A counted along it

[15] = organism: Homo sapiens; test: Selectivity index, ratio of IC50 for human CSE R119K mutant expressed in HEK293T cells to IC50 for wild type human CSE expressed in HEK293T cells; assay type: cell-based
[16] = organism: Homo sapiens; test: Selectivity index, ratio of IC50 for human CSE Y114F mutant expressed in HEK293T cells to IC50 for wild type human CSE expressed in HEK293T cells; assay type: cell-based
[17] = organism: Homo sapiens; test: Selectivity index, ratio of IC50 for human CSE R119A mutant expressed in HEK293T cells to IC50 for wild type human CSE expressed in HEK293T cells; assay type: cell-based
[18] = target: T1, Cystathionine gamma-lyase; test: Inhibition of wild type human CSE expressed in HEK293T cells assessed as reduction in H2S contents; assay type: cell-based
[19] = target: Cystathionine gamma-lyase (Mus musculus) (UniProt Q8VCN5); test: Inhibition of CSE in mouse RAW264.7 cells assessed as increase in levels of cellular H-cys level at 1 to 500 uM by ELISA; assay type: cell-based; details: dose 1-500 µM
Chain of Cystathionine gamma-lyase (Mus musculus) (Q8VCN5 whole entry): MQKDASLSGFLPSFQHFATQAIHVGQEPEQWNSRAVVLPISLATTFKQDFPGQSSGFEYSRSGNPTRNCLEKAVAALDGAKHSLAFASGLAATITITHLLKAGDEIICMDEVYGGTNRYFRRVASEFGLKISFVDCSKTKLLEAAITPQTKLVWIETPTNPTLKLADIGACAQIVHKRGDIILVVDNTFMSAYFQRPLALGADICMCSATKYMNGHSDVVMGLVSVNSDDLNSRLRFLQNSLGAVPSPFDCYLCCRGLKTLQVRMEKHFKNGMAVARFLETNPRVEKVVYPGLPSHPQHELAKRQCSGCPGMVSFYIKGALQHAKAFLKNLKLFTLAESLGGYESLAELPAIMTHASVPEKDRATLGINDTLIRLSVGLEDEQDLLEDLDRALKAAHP

[20] = target: Cystathionine gamma-lyase (Mus musculus) (UniProt Q8VCN5); test: Potency index, ratio of inhibition activity of PAG to test compound for inhibition of CSE in mouse RAW264.7 cells assessed as reduction in amount of released H2S level by lead acetate method; assay type: cell-based
[21] = target: T1, Cystathionine gamma-lyase; test: Inhibition of human CSE expressed in mouse RAW264.7 cells assessed as reduction in amount of released H2S level at 20 to 50 uM by lead acetate method; assay type: cell-based; details: dose 20-50 µM
[22] = target: Cystathionine gamma-lyase (Mus musculus) (UniProt Q8VCN5); test: Inhibition of CSE in mouse RAW264.7 cells assessed as reduction in amount of released H2S level at 20 to 50 uM by lead acetate method; assay type: cell-based; details: dose 20-50 µM
[23] = organism: Homo sapiens; test: Selectivity index, ratio of Ki for human CSE R119K mutant to Ki for wild type human CSE
[24] = target: Cystathionine gamma-lyase (Mus musculus) (UniProt Q8VCN5); test: (§1) Inhibition of CSE in mouse RAW264.7 cells assessed as reduction in endogenous H2S level by AzMC probe based fluorescence assay; assay type: cell-based
[25] = target: Cystathionine gamma-lyase (Mus musculus, UniProt Q8VCN5); test: as §1; assay type: cell-based
Chain of Cystathionine gamma-lyase (Mus musculus, UniProt Q8VCN5) (Q8VCN5 whole entry): as above

[26] = organism: Homo sapiens; test: Selectivity index, ratio of Ki for human CSE R119A mutant to Ki for wild type human CSE
[27] = organism: Homo sapiens; test: Selectivity index, ratio of Ki for human CSE Y114F mutant to Ki for wild type human CSE
[28] = organism: Homo sapiens; test: Selectivity index, ratio of IC50 for human CSE R119K mutant to IC50 for wild type human CSE
[29] = organism: Homo sapiens; test: Selectivity index, ratio of IC50 for human CSE R119A mutant to IC50 for wild type human CSE
[30] = organism: Homo sapiens; test: Selectivity index, ratio of IC50 for human CSE Y114F mutant to IC50 for wild type human CSE
[31] = organism: Homo sapiens; test: Selectivity index, ratio of IC50 for human CSE Y114A mutant to IC50 for wild type human CSE
[32] = organism: Homo sapiens; test: Selectivity index, ratio of IC50 for human CSE R62A mutant to IC50 for wild type human CSE
[33] = target: T1, Cystathionine gamma-lyase; test: Competitive inhibition of human CSE using varying levels of L-Cys as substrate and fixed PLP levels
[34] = target: T1, Cystathionine gamma-lyase; test: Effect on PLP interaction with human CSE assessed as effect on spectra of CSE-bound PLP
[35] = target: T1, Cystathionine gamma-lyase; test: Non-competitive inhibition of human CSE using varying levels of PLP and fixed L-Cys as substrate
[36] = target: T1, Cystathionine gamma-lyase; test: Binding affinity to human CSE by ITC analysis
[37] = target: T1, Cystathionine gamma-lyase; test: Inhibition of human CSE by methylene blue method
[38] = target: T1, Cystathionine gamma-lyase; test: Non-covalent reversible inhibition of human CSE
[39] = target: T2, Cystathionine beta-synthase; test: Inhibition of CBS (unknown origin) by AzMC based fluorescence assay
[40] = target: T2, Cystathionine beta-synthase; test: Inhibition of human CBS by methylene blue method
[41] = target: T1, Cystathionine gamma-lyase; test: Inhibition of human CSE using H-Cys as the substrate by tandem well based HTS assay
[42] = target: T2, Cystathionine beta-synthase; test: Inhibition of CBS (unknown origin) by methylene blue method
[43] = target: T1, Cystathionine gamma-lyase; test: Inhibition of human CSE using H-Cys as the substrate by LC/MS/MS-based assay
[44] = target: T1, Cystathionine gamma-lyase; test: Inhibition of human CSE using L-Cys as the substrate in presence of 0.01% Triton X-100 by tandem well based HTS assay
[45] = target: T1, Cystathionine gamma-lyase; test: Inhibition of human CSE using L-Cys as the substrate in presence of 0.025% Triton X-100 by tandem well based HTS assay
[46] = Binding affinity to H2S assessed as absorbing of released H2S up to 100 uM in presence of NaHS as H2S donor; details: dose microM <=100
[47] = organism: Homo sapiens; test: Selectivity index, ratio of IC50 for human CBS to IC50 for human CSE
[48] = organism: Homo sapiens; test: Selectivity index, ratio of IC50 for human CBS to IC50 for human DDC
[49] = Binding affinity to H2S assessed as absorbing of released H2S at 200 uM in presence of NaHS as H2S donor

T1 sequence (P32929 whole entry): as the sequence (P32929 whole entry R119K) above, with K119R counted along it

O=C(O)C1=C/C(=C(\c2ccccc2)c2cc(C(=O)O)c(O)c3ccccc23)c2ccccc2C1=O
IC50 [1]: > 200 µM

O=C(O)C1=CC(=C(c2ccc(O)c(C(=O)O)c2)c2ccc(O)c(C(=O)O)c2)C=CC1=O [AURINTRICARBOXYLIC ACID]
inhibition [2]: Active | inhibition [3]: Active | Activity [4]: 65 mmHg | Activity [5]: Non-Toxic | inhibition [6]: Active | Activity [7]: Non-Toxic | inhibition [8]: inactive | inhibition [9]: inactive | inhibition [10]: inactive | IC50 [11]: > 650 µM | IC50 [12]: 245 µM | IC50 [13]: 283 µM | IC50 [14]: 371 µM | Ratio IC50 [15]: 6 | Ratio IC50 [16]: 6 | Ratio IC50 [17]: 6 | IC50 [18]: 34.7 µM | inhibition [18]: Dose-dependent effect | inhibition [19]: Active | Ratio [20]: 8 | inhibition [21]: Active | inhibition [22]: Active | Ratio Ki [23]: 40.5 | inhibition [24]: Dose-dependent effect | IC50 [25]: 43.2 µM | Ratio Ki [26]: 52 | Ratio Ki [27]: 44.5 | Ratio IC50 [28]: 26 | Ratio IC50 [29]: 32 | Ratio IC50 [30]: 29.6 | Ratio IC50 [31]: > 10 | Ratio IC50 [32]: > 10 | Ki [33]: 0.6 µM | Activity [34]: inactive | alphaKi [35]: 4.2 µM | Kd [36]: 3.4 µM | IC50 [37]: 2.6 µM | inhibition [38]: Active | IC50 [39]: 3 µM | IC50 [40]: 54.2 µM | IC50 [41]: 1.7 µM | IC50 [42]: 20 µM | IC50 [43]: 3.3 µM | inhibition [43]: Dose-dependent effect | IC50 [44]: 1.8 µM | IC50 [45]: 1.8 µM | Activity [46]: inactive | Ratio IC50 [47]: 137 | Ratio IC50 [48]: 143 | IC50 [1]: 0.6 µM

Cc1ccc([S+]([O-])c2ccc([N+](=O)[O-])c3nonc23)cc1 (stereo unspecified)
IC50 [1]: < 50 µM

CN1CCN(C2=C(Cl)C(=O)c3ccccc3C2=O)CC1
IC50 [1]: < 50 µM

CC1=C/C(=C(\c2cc(C)c(O)c(C(=O)O)c2)c2c(Cl)cccc2Cl)C=C(C(=O)O)C1=O
IC50 [1]: 155 µM

Nc1ccc(Cc2ccc(NC3C(=O)c4ccccc4C(=O)C3Cl)cc2)cc1 (stereo unspecified)
IC50 [1]: < 50 µM

O=C(O)c1ccccc1O [SALICYLIC ACID]
IC50 [1]: > 200 µM

COC(=O)C1=CC(=C(c2ccc(O)c(C(=O)OC)c2)c2ccc(O)c(C(=O)OC)c2)C=CC1=O
IC50 [1]: > 200 µM

CCNC1=CC(=O)c2ncccc2C1=O
IC50 [1]: < 50 µM

O=[N+]([O-])c1ccc(O)c2ncccc12 [NITROXOLINE]
IC50 [41]: 10.7 µM | IC50 [43]: 6 µM | inhibition [44]: Active | inhibition [45]: Active | Activity [46]: inactive | Activity [49]: 35% | Ratio IC50 [47]: 62 | Ratio IC50 [48]: 12 | IC50 [1]: 8 µM

O=[N+]([O-])c1ccc(Sc2cccc[n+]2[O-])c2nonc12
IC50 [1]: < 50 µM

O=C1c2ccccc2C(=O)c2sc(Nc3ccc(Cl)cc3)nc21
IC50 [1]: < 50 µM

O=C1C(Cl)=C(NCCN2CCNCC2)C(=O)c2ccccc21
IC50 [1]: < 50 µM

Nc1ccc(O)c(C(=O)O)c1 [MESALAMINE]
IC50 [1]: > 200 µM
